Assay results: paper PMC6630832, “3-Vinylazetidin-2-Ones: Synthesis, Antiproliferative and Tubulin Destabilizing Activity in MCF-7 and MDA-MB-231 Breast Cancer Cells” (Pharmaceuticals, 2019)
Where “and” joins values, the source holds several entries; their conditions need not be identical. Identical values can stand only once. Like-named read-outs stand apart in the source and are kept apart here.

Tests used:
[1] = tested on: human MDA-MB-231 breast cancer cells; experiment: Cell viability (Alamar Blue) antiproliferative assay in MDA-MB-231 cells; assay type: cell-based; details: mean ± SEM
Method: The human breast carcinoma cell line MCF-7, was purchased from the European Collection of Animal Cell Cultures (ECACC) and was cultured in Eagle’s minimum essential medium with 10% fetal bovine serum, 2 mM L-glutamine and 100 μg/mL penicillin/streptomycin. The medium was supplemented with 1% non-essential amino acids. The human breast carcinoma cell line MDA-MB-231 was purchased from the European Collection of Animal Cell Cultures (ECACC). MDA-MB-231 cells were maintained in Dulbecco’s modified Eagle’s medium (DMEM) supplemeted with 10% (v/v) fetal bovine serum, 2 mM L-glutamine and 100 μg/mL penicillin/streptomycin (complete medium). All media contained 100 U/mL penicillin and 100 μg/mL streptomycin. Triple negative breast cancer Hs578T cells and its invasive variant Hs578Ts(i)8 were obtained as a kind gift from Dr. Susan McDonnell, School of Chemical and Bioprocess Engineering, University College Dublin and were cultured in Dulbecco’s Modified Eagle’s Media (DMEM) with GlutaMAX^TM-I, with the same supplement as for MDA-MB-231 cells in the absence of non-essential amino acids. HEK-293T normal epithelial embryonic kidney cells were cultured in Dulbecco’s Modified Eagle’s Medium (DMEM) with GlutaMAX^TM-I in the absence of non-essential amino acids. K562 and HL-60 cells were originally obtained from the European Collection of Cell Cultures (Salisbury, UK).The K562 cells were derived from a patient in the blast crisis stage of CML HL-60 cells were derive from a patient with acute myeloid leukaemia. Cells were cultured in RPMI-1640 Glutamax medium supplemented with 10% FCS media, and 100 μg/mL penicillin/streptomycin. Cells were maintained at 37 °C in 5% CO2 in a humidified incubator. All cells were sub-cultured three times/week (adherent cells by trypsinisation).
Cells were seeded at a density of 5 × 10^3 cells/well (MCF-7), in triplicate in 96-well plates. After 24 h, cells were then treated with either medium alone, vehicle [1% ethanol (v/v)] or with serial dilutions of CA-4 or β-lactam analogue. Cell viability for MCF-7 and MDA-MB-231 was analysed using the Alamar Blue assay (Invitrogen Corp, Thermo Fisher Scientific, 168 Third Avenue, Waltham, MA, USA) according to the manufacturer’s instructions. After 72 h, Alamar Blue [10% (v/v)] was added to each well and plates were incubated for 3–5 h at 37 °C in the dark. Fluorescence was read using a 96-well fluorimeter with excitation at 530 nm and emission at 590 nm. Results were expressed as percentage viability relative to vehicle control (100%). Dose response curves were plotted and IC50 values (concentration of drug resulting in 50% reduction in cell survival) were obtained using the commercial software package Prism (GraphPad Software, Inc., 2365 Northside, Suite 560, San Diego, CA, USA). Experiments were performed in triplicate on at least three separate occasions.

purified bovine tubulin = molecular target: T1, purified bovine tubulin (Bos taurus, UniProt P81947+Q6B856); experiment: Tubulin polymerization assay; assay type: biochemical; details: for vmax of tubulin polymerization: absorbance at 340 nm, 37 °C
T1 construct: Purified (>99%) bovine brain tubulin (3 mg/mL); purchased Cytoskeleton Inc. BK006; host or cells: bovine brain (tissue-purified)
T1 sequence (Q6B856 whole entry): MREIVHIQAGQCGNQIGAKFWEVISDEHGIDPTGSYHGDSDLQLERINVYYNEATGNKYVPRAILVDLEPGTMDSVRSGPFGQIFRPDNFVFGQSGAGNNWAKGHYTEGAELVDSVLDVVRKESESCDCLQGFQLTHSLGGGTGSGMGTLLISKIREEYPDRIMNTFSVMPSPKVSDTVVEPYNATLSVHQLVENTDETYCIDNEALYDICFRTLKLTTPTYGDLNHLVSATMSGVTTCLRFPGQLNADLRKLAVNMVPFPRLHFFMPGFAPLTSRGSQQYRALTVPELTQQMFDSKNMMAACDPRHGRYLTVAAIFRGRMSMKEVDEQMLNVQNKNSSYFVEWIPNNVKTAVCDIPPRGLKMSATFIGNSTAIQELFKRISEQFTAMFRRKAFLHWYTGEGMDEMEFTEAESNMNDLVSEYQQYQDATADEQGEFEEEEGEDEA
T1 sequence (P81947 whole entry): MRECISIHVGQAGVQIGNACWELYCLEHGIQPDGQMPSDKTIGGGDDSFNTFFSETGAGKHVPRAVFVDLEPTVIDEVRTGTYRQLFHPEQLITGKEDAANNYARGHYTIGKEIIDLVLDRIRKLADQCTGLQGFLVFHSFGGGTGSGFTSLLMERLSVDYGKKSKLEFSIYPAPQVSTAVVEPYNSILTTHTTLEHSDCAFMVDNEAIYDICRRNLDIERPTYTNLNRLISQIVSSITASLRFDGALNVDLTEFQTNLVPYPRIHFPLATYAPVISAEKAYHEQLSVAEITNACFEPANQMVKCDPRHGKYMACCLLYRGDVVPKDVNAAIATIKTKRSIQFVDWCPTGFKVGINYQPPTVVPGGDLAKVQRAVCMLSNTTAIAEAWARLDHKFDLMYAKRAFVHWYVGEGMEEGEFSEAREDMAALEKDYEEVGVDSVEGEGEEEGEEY
Method: The assembly of purified bovine tubulin was monitored using a kit, BK006, purchased from Cytoskeleton Inc., 1830 S Acoma St, Denver, CO, 80223, USA.. The assay was carried out in accordance with the manufacturer’s instructions in the tubulin polymerisation assay kit manual using the standard assay conditions. The values reported represent the average values from two independent assays. Purified (>99%) bovine brain tubulin (3 mg/mL) in a buffer consisting of 80 mM PIPES (pH 6.9), 0.5 mM EGTA, 2 mM MgCl2, 1 mM GTP and 10% glycerol was incubated at 37 °C in the presence of either vehicle (2% (v/v) ddH2O) or compounds 7h, 7i, 7s, 7t (initially 10 µM in EtOH); CA-4 and Paclitaxel were used as controls. Light is scattered proportionally to the concentration of polymerised microtubules in the assay. Therefore, tubulin assembly was monitored turbidimetrically at 340 nm at 37 °C in a Spectramax 340 PC spectrophotometer (Molecular Devices, 3860 N 1st St, San Jose, CA, USA). The absorbance was measured at 30 s intervals for 60 min.

HCT-116 = experiment: NCI60 screen (SRB), Colon Cancer; assay type: cell-based; details: Homo sapiens
DU-145 = experiment: NCI60 screen (SRB), Prostate cancer; assay type: cell-based; details: Homo sapiens
SK-MEL-5 = experiment: NCI60 screen (SRB), Melanoma; assay type: cell-based; details: Homo sapiens
OVCAR-3 = experiment: NCI60 screen (SRB), Ovarian cancer; assay type: cell-based; details: Homo sapiens
NCI/ADR-RES = experiment: NCI60 screen (SRB), Ovarian cancer; assay type: cell-based; details: Homo sapiens
SK-OV-3 = experiment: NCI60 screen (SRB), Ovarian cancer; assay type: cell-based; details: Homo sapiens
ACHN = experiment: NCI60 screen (SRB), Renal cancer; assay type: cell-based; details: Homo sapiens
UO-31 = experiment: NCI60 screen (SRB), Renal cancer; assay type: cell-based; details: Homo sapiens
MDA-MB-231/ATCC = experiment: NCI60 screen (SRB), Breast cancer; assay type: cell-based, human; details: for IC50: value from NCI (footnote b)
HS 578T = experiment: NCI60 screen (SRB), Breast cancer; assay type: cell-based; details: Homo sapiens
TK-10 = experiment: NCI60 screen (SRB), Renal cancer; assay type: cell-based; details: Homo sapiens
RPMI-8226 = experiment: NCI60 screen (SRB), Leukemia; assay type: cell-based; details: Homo sapiens
SR = experiment: NCI60 screen (SRB), Leukemia; assay type: cell-based; details: Homo sapiens
SF539 = experiment: NCI60 screen (SRB), CNS Cancer; assay type: cell-based; details: Homo sapiens, SF-539
[2] = 10 μM, with reference to ethanol control
[3] = NCI60 Colon Cancer cell line HCT-116, read-out: GI50
[4] = NCI60 Prostate cancer cell line DU-145, read-out: GI50
[5] = NCI60 Melanoma cell line SK-MEL-5, read-out: GI50
[6] = NCI60 Ovarian cancer cell line OVCAR-3, read-out: GI50
[7] = NCI60 Ovarian cancer cell line NCI/ADR-RES, read-out: GI50
[8] = NCI60 Ovarian cancer cell line SK-OV-3, read-out: GI50
[9] = NCI60 Renal cancer cell line ACHN, read-out: GI50
[10] = NCI60 Renal cancer cell line TK-10, read-out: GI50
[11] = NCI60 Renal cancer cell line UO-31, read-out: GI50
[12] = Homo sapiens, NCI60 Breast cancer cell line MDA-MB-231/ATCC, read-out: GI50
[13] = NCI60 Breast cancer cell line HS 578T, read-out: GI50
[14] = NCI60 Leukemia cell line RPMI-8226, read-out: GI50
[15] = NCI60 Leukemia cell line SR, read-out: GI50
[16] = NCI60 CNS Cancer cell line SF539, read-out: GI50

SMILES	IC50 [1]	vmax of tubulin polymerization (purified bovine tubulin; 10 μM)	fold reduction in vmax of tubulin polymerization (purified bovine tubulin; [2])	GI50 (HCT-116; HCT-116)	GI50 (DU-145; DU-145)	GI50 (SK-MEL-5; SK-MEL-5)	GI50 (OVCAR-3; OVCAR-3)	GI50 (NCI/ADR-RES; NCI/ADR-RES)	GI50 (SK-OV-3; SK-OV-3)	GI50 (HCT-116; [3])	GI50 (DU-145; [4])	GI50 (SK-MEL-5; [5])	GI50 (OVCAR-3; [6])	GI50 (NCI/ADR-RES; [7])	GI50 (SK-OV-3; [8])	GI50 (ACHN; [9])	GI50 (TK-10; [10])	GI50 (UO-31; [11])	GI50 (MDA-MB-231/ATCC; [12])	GI50 (HS 578T; [13])	other results
COc1ccc(/C=C\c2cc(OC)c(OC)c(OC)c2)cc1O [CA-4, Combretastatin A-4, reference compound]	43 nM	–	–	–	–	–	–	–	–	–	–	–	–	–	–	–	–	–	–	–	fold reduction in vmax of tubulin polymerization (purified bovine tubulin): 5.28 fold
C=CC1C(=O)N(c2cc(OC)c(OC)c(OC)c2)C1c1ccc(OC)cc1 (centres unmarked) [Compound 7h, 4-(4-Methoxyphenyl)-1-(3,4,5-trimethoxyphenyl)-3-vinylazetidin-2-one]	–	3.43 mOD/min	2.45 fold	30.7 nM	29.8 nM	19.4 nM	25.1 nM	27.2 nM	28.5 nM	–	–	–	–	–	–	–	–	–	–	–	GI50 (ACHN; ACHN): 61.5 nM; GI50 (UO-31; UO-31): 70.9 nM; GI50 (MDA-MB-231/ATCC; Homo sapiens, MDA-MB-231): 31.7 nM; IC50 (MDA-MB-231/ATCC; Homo sapiens, MDA-MB-231, read-out: Antiproliferative Activity IC50, MDA-MB-231): 31 nM; IC50 (MDA-MB-231/ATCC; read-out: Antiproliferative Activity IC50, MDA-MB-231): 31.7 nM; GI50 (HS 578T; Hs-578T): 72.7 nM
C=CC1C(=O)N(c2cc(OC)c(OC)c(OC)c2)C1c1ccc(OC)c(O)c1 (centres unmarked) [Compound 7s, 4-[3-Hydroxy-4-methoxyphenyl]-1-(3,4,5-trimethoxyphenyl)-3-vinylazetidin-2-one]	–	–	8.7 fold and 8.70 fold	–	–	–	–	–	–	< 10 nM	< 10 nM	< 10 nM	< 10 nM	< 10 nM	10.5 nM	< 10 nM	10.2 nM	11.1 nM	< 10 nM	< 10 nM	fold reduction in vmax of tubulin polymerization (purified bovine tubulin; 1 μM): 2.61 fold; fold reduction in vmax of tubulin polymerization (purified bovine tubulin; 5 μM): 7.31 fold; IC50 (purified bovine tubulin; calculated from 1, 5 and 10 μM, read-out: IC50 for the inhibition of tubulin polymerization): 1370 nM; IC50 (MDA-MB-231/ATCC; Homo sapiens, MDA-MB-231, read-out: Antiproliferative Activity IC50): 10 nM
C=CC1C(=O)N(c2cc(OC)c(OC)c(OC)c2)C1c1ccc(OC)c(N)c1 (centres unmarked) [Compound 7t, 4-(3-Amino-4-methoxyphenyl)-1-(3,4,5-trimethoxyphenyl)-3-vinylazetidin-2-one]	30 ± 2 nM	0.92 mOD/min	9.15 fold	27.6 nM	36.5 nM	14.6 nM	18.1 nM	< 10 nM	45.7 nM	–	–	–	–	–	–	–	–	–	–	–	GI50 (RPMI-8226; RPMI-8226): < 10 nM; GI50 (SR; SR): 43.9 nM; GI50 (SF539): < 10 nM; GI50 (ACHN; ACHN): 37.3 nM; GI50 (TK-10; TK-10): 26800 nM; GI50 (UO-31; UO-31): 64 nM; GI50 (MDA-MB-231/ATCC; Homo sapiens, MDA-MB-231): 41.5 nM; GI50 (HS 578T; Hs-578T): 39.8 nM
C=CC1C(=O)N(c2cc(OC)c(OC)c(OC)c2)C1c1ccc(OC)c(OP(=O)(O)O)c1 (centres unmarked) [Compound 17b, 2-Methoxy-5-(1-(3,4,5-trimethoxyphenyl)-4-oxo-3-vinylazetidin-2-yl)phenyl dihydrogen phosphate]	–	–	–	–	–	–	–	–	–	43.9 nM	59.6 nM	31.2 nM	49.7 nM	37 nM	97.7 nM	64.5 nM	11400 nM	254 nM	48.6 nM	53.1 nM	GI50 (RPMI-8226; [14]): 80.2 nM; GI50 (SR; [15]): 57.2 nM; GI50 (SF539; [16]): 42 nM; IC50 (MDA-MB-231/ATCC; Homo sapiens, MDA-MB-231, MDA-MB-231, read-out: Antiproliferative Activity IC50): 49 nM; IC50 (MDA-MB-231/ATCC; MDA-MB-231, read-out: Antiproliferative Activity IC50): 48.6 nM
CCC1C(=O)N(c2cc(OC)c(OC)c(OC)c2)C1c1ccc(OC)c(OP(=O)(O)O)c1 (centres unmarked) [Compound 17c, 5-(3-Ethyl-1-(3,4,5-trimethoxyphenyl)-4-oxoazetidin-2-yl)-2-methoxyphenyl dihydrogen phosphate]	44 ± 7 nM	–	–	–	–	–	–	–	–	35 nM	41.3 nM	19 nM	36.8 nM	19.1 nM	34.1 nM	38.5 nM	73.6 nM	42.6 nM	31 nM	37.1 nM	GI50 (RPMI-8226; [14]): 48.2 nM; GI50 (SR; [15]): 33.5 nM; GI50 (SF539; [16]): 16.2 nM
